Source: patent USRE35492E, “Wound treatment employing biologically active ion channel forming peptides and proteins” (Magainin Pharmaceuticals, Inc., priority 1994, dated 1997)
No end group written: not given here.

Experiments:
[1] = test system: wound healing; conditions: cited from earlier work; for restoring connective tissue deposition / restoring wound contraction: antagonism of cortisone inhibition of wound healing
[2] = test system: wound healing in rats (sponge disc implants); test: Subcutaneous polyvinylchloride sponge disc implants in rats: collagen content and breaking strength; assay type: in vivo, rat
Excerpt: (§1) Twenty-two male rats weighing between 300 g and 325 g were anesthetized, after which their backs and abdomens were shaved and washed with 70% ethanol. Three modified polyvinylchloride sponge discs 2 mm thick and 15 mm in diameter were implanted in each rat abdominally in subcutaneous pockets made under the skin. Two of the implants were cut in half and rejoined before the implantation, and the remaining disc was sandwiched between two silicone discs which forced granulation tissue infiltration to occur from the periphery of the disc. A single 15 mm×15 mm square full excision wound was made on the back and the wound edges tattooed.
(§2) The rats were then divided into four groups. A first, or control, group of four rats received sham injections daily. A second group of four rats received daily intramuscular injections of 10 mg of cortisone acetate. Cortisone is known to be an inhibitor of wound healing. A third group of seven rats received daily intramuscular injections of 0.3 mg of amide-terminated Magainin II. A fourth group of seven rats received daily intramuscular injections of 10 mg of cortisone acetate and 0.3 mg of Magainin II at separate sites. At seven days, rat weights were recorded, wound sizes measured, and the implants harvested. The staple which joined the two disc halves together was carefully removed and the breaking strength measured. Collagen content from the implant halves from each treatment group was measured by weighing the pepsin extracted native collagen. The sponge halves are homogenized in 0.5M ice-cold acetic acid containing 0.1 mg of pepsin per ml. The homogenate was stirred for 24 hours at 4° C., centrifuged, and supernatants saved. The native solubilized collagen was isolated by adding sodium chloride to 10% w/v. The salt precipitate was collected by centrifugation (10,000× g for 10 min.) and then taken up in 145 mM potassium phosphate buffer pH7.6, exhaustively dialyzed against 1 mM HCl, lyophilized and its dry weight recorded. Confirmation of collagen purity was made by SDS polyacrylamide gel electrophoresis. Pepsin digestion extracts only native collagen, needed for the formation of collagen fibers. The accumulations of collagen in the early stages of healing are responsible for gain in wound tensile strength. Collagen content from the implants taken from the group treated with cortisone acetate alone averaged 0.82 mg/sponge, as compared with 3.43 mg/sponge for the control group.
The group treated with Magainin II alone has a average wound breaking strength of 415 g.

[3] = test system: full excision wound in rats; test: 15 mm×15 mm full excision wound on the back of rats: wound contraction; assay type: in vivo, rat; conditions: for average wound contraction: seven days
Excerpt: as §1, §2

[4] = substance alone, daily intramuscular injections (Magainin II 0.3 mg; cortisone acetate 10 mg), implants harvested at seven days, control group 3.43

Q: Which “effect on wound healing” value ([1]; known) does the source give for `C[C@]12CCC(=O)C=C1CC[C@@H]1[C@@H]2C(=O)C[C@@]2(C)[C@H]1CC[C@]2(O)C(=O)CO` [Cortisone] here?
A: inhibitor

Q: With “growth hormone: other antagonist of cortisone inhibition, effective in restoring connective tissue deposition” as the compound, how does the “restoring connective tissue deposition” value [1] read?
A: effective

Q: What about the restoring wound contraction [1] of the same compound?
A: ineffective

Q: Which “average collagen content of implants” value ([2]; 0.3 mg Magainin II plus 10 mg cortisone acetate daily intramuscular at separate sites, seven days, cortisone acetate alone 0.82) does the source give for “GIGKFLHSAKKFGKAFVGEIMNS-NH2 [Magainin II]” here?
A: 3.20 mg/sponge

Q: What about the “average wound breaking strength” value ([2]; 0.3 mg Magainin II plus 10 mg cortisone acetate daily intramuscular at separate sites, seven days, cortisone acetate alone 195) of the same compound?
A: 320 g

Q: What about the “average collagen content of implants” value [2, 4] of the same compound?
A: 3.82 mg/sponge

Q: What about the stimulating wound healing ([3]; rats) of the same compound?
A: effective

Q: What about the “cortisone inhibition of wound healing (collagen deposition and wound contraction)” value ([3]; rats treated with cortisone acetate and Magainin II) of the same compound?
A: antagonistic

Q: What about the average wound contraction ([3]; rats, 0.3 mg Magainin II plus 10 mg cortisone acetate daily intramuscular at separate sites, cortisone acetate alone 28) of the same compound?
A: 53%

Q: And the average wound contraction ([3]; rats, substance alone, daily intramuscular injections (Magainin II 0.3 mg; cortisone acetate 10 mg), control group 67)?
A: 65%

Q: For Vitamin A, which “restoring connective tissue deposition” value [1] is on record?
A: effective

Q: And the restoring wound contraction [1]?
A: ineffective

Q: Which “average collagen content of implants” value [2, 4] does the source give for `CC(=O)OCC(=O)[C@@]1(O)CC[C@H]2[C@@H]3CCC4=CC(=O)CC[C@]4(C)[C@H]3C(=O)C[C@@]21C` [cortisone acetate, reference compound] here?
A: 0.82 mg/sponge
